# In patent US20240050400A1, “Use of the Sesquiterpene Lactone Tomentosin in the Treatment of Tumors Caused by Lymphoid Cell Lines” (Universita Degli Studi Di Sassari, priority 2021, published 2024):
# Tests used:
# [1] = tested on: Raji (of Burkitt lymphoma) cells; test: Cell proliferation (CellTiter-Glo) and cytotoxicity (CellTox Green) test, Raji; type: cell-based; settings: for effect on cells (cell proliferation / cell death): 48 hours of treatment
# Protocol: (§1) The molecules were tested at 7 different concentrations: 50 μM, 25 μM, 12.5 μM, 6.25 μM, 3.125 μM, 1.56 μM, 0.75 μM, in culture with lymphoid tumor (myeloma, lymphoma) cell lines.
# (§2) Tested cell lines: • MM.1S (of multiple myeloma), cultivated in RPMI-1640 medium, 10% FBS, L-Glutamine, AA • RPMI-8226 (of multiple myeloma), cultivated in RPMI-1640 medium, 10% FBS, L-Glutamine, AA; • Raji (of Burkitt lymphoma), cultivated in RPMI-1640 medium, 10% FBS, L-Glutamine, AA; • MRC5 (of pulmonary fibroblasts), cultivated in DMEM medium, 10% FBS, L-Glutamine, AA, Pyruvate Sodium, NEAA.
# (§3) After 48 hours of treatment, drug-induced cellular death was estimated by measuring the intensity of the fluorescence signal after staining the dead cells using a known method (CellTox Green Dye—Promega).
# (§4) Soon afterwards, the number of live cells was evaluated by adding CellTiter Glo P (Promega) reagent, through which the cell lysis and the luminescence signal are directly proportional to the ATP levels in each sample.
# (§5) 24 hours prior to the addition of the compound under examination, the cells resuspended at adequate concentrations were seeded in 384-well flat clear bottom black polystyrene TC-treated microplates (Corning 3764).
# (§6) Each well contained 20 μL of cell suspension. The day after, […] of the molecules under examination, with integrated CellTox (Promega G8731) green dye, were added to each sample to obtain the desired treatment concentrations.
# (§7) The seeding of the cells, the preparation of the serial dilutions, and the addition of the molecules to the cells were performed using an automated liquid pipetting platform (Gilson Pipetmax).
# (§8) 48 hours after the treatment, the intensity of the global green fluorescence in each well was quantified using Biotek Cytation 5. For each sample, four images were taken to cover the whole area of the well. Image merging, processing and background removal were performed using the Gen5 software. Immediately after the fluorescence reading, 30 μL of CellTiter Glo reagent (Promega G7571) just prepared were added to each well, and each sample was mixed 5 times. Ten minutes later, a luminescence reading was taken. Three technical replicates for each condition under examination were plated.
# (§9) CellTiter-Glo is a reagent used for determining the number of viable cells in a culture based on the quantification of ATP, which signals the presence of metabolically active cells.
# (§10) The reagent is added directly to the samples, resulting in cell lysis and generation of a luminescent signal that is proportional to the quantity of ATP. The luminescence signal is quantified using Promega Glo-Max Discover.
# (§11) The CellTox green dye measures the changes that have occurred in the integrity of the membrane following cell death. The test uses a dye which is excluded from viable cells while coloring the DNA of dead cells. When the dye binds to the DNA of the compromised cells, the fluorescent properties of the dye are enhanced, whereas viable cells produce no perceptible increase in fluorescence. Therefore, the fluorescent signal produced by the dye is proportional to cytotoxicity. Fluorescence intensity (GFI) is quantified by means of a Biotek Cytation 5 wide-field automated digital microscope, led cube 465 nm, filter cube excitation 469±25 nm, emission 525±25 nm.
# (§12) Cell viability is calculated as relative cell count (R): […]
# (§13) where T is the number of cells in the treated sample and U is the number of cells in the untreated sample. […]
# [2] = tested on: MRC5 (of pulmonary fibroblasts) non-tumor cells; test: Cell proliferation (CellTiter-Glo) and cytotoxicity (CellTox Green) test, MRC5 non-tumor control; type: cell-based; settings: for IC50 relative to the maximum concentration tested: highest tested concentration 50 μM
# Protocol: The MRC5 cell line was used as a control to evaluate if these molecules were toxic also towards non-tumor cells.
# Soon afterwards, the number of live cells was evaluated by adding CellTiter Glo P (Promega) reagent, through which the cell lysis and the luminescence signal are directly proportional to the ATP levels in each sample. […]
# [3] = tested on: RPMI-8226 (of multiple myeloma) cells; test: Cell proliferation (CellTiter-Glo) and cytotoxicity (CellTox Green) test, RPMI-8226; type: cell-based; settings: RPMI-8226 cells; for effect on cells (cell proliferation / cell death): 0.75-50 μM, 48 hours of treatment
# Protocol: The molecules were tested at 7 different concentrations: 50 μ[…], in culture with lymphoid tumor (myeloma, lymphoma) cell lines. Tested cell lines: • MM.1S (of multiple myeloma), cultivated in RPMI-1640 medium, 10% FBS, L-Glutamine, AA • RPMI-8226 (of multiple myeloma), cultivated in RPMI-1640 medium, 10% FBS, L-Glutamine, AA; • Raji (of Burkitt lymphoma), cultivated in RPMI-1640 medium, 10% FBS, L-Glutamine, AA; • MRC5 (of pulmonary fibroblasts), cultivated in DMEM medium, 10% FBS, L-Glutamine, AA, Pyruvate Sodium, NEAA. […] After 48 hours of treatment, drug-induced cellular death was estimated by measuring the intensity of the fluorescence signal after staining the dead cells using a known method (CellTox Green Dye-Promega). Soon afterwards, the number of live cells was evaluated by adding CellTiter Glo P (Promega) reagent, through which the cell lysis and the luminescence signal are directly proportional to the ATP levels in each sample. 24 hours prior to the addition of the compound under examination, the cells resuspended at adequate concentrations were seeded in 384-well flat clear bottom black polystyrene TC-treated microplates (Corning 3764). Each well contained 20 μL of cell suspension. […] The seeding of the cells, the preparation of the serial dilutions, and the addition of the molecules to the cells were performed using an automated liquid pipetting platform (Gilson […]). 48 hours after the treatment, the intensity of the global green fluorescence in each well was quantified using Biotek Cytation 5. […] Immediately after the fluorescence reading, 30 μL of CellTiter Glo reagent (Promega G7571) just prepared were added to each well, and each sample was mixed 5 times. Ten minutes later, a luminescence reading was taken. […] CellTiter-Glo is a reagent used for determining the number of viable cells in a culture based on the quantification of ATP, which signals the presence of metabolically active cells. The reagent is added directly to the samples, resulting in cell lysis and generation of a luminescent signal that is proportional to the quantity of ATP. The luminescence signal is quantified using Promega Glo-Max Discover. […] When the dye binds to the DNA of the compromised cells, the fluorescent properties of the dye are enhanced, whereas viable cells produce no perceptible increase in fluorescence. […] Fluorescence intensity (GFI) is quantified by means of a Biotek Cytation 5 wide-field automated digital microscope, led cube 465 nm, filter cube excitation 469±25 nm, emission 525±25 nm. Cell viability is calculated as relative cell count (R): R=T/U×100 where T is the number of cells in the treated sample and U is the number of cells in the untreated sample. […] Cell death is measured as green fluorescence intensity (GFI).
# [4] = tested on: aggressive human melanoma cell lines; settings: cited from earlier work
# [5] = tested on: MM.1S (of multiple myeloma) cells; test: Cell proliferation (CellTiter-Glo) and cytotoxicity (CellTox Green) test, MM.1S; type: cell-based; settings: MM.1S cells; for effect on cells (cell proliferation / cell death): 48 hours of treatment
# Protocol: as §1, §2, §3, §4, §5, §6, §7, §8, §9, §10, §11, §12, §13
# [6] = tested on: MOLT-4 cell line of human leukemia; settings: through inhibition of the mTOR/PI3K/Akt signalling pathway; cited from earlier work
# [7] = highest tested concentration 50 μM
SMILES,anti-proliferative activity ([1]; 0.75-50 μM),"IC50 relative to the maximum concentration tested [1, 7]",IC50 relative to the maximum concentration tested [2],effect on cells (cell proliferation / cell death) [3],pro-apoptotic effect [4],anti-proliferative activity ([5]; 0.75-50 μM),"IC50 relative to the maximum concentration tested [5, 7]",effect on cells (cell proliferation / cell death) ([1]; 0.75-50 μM),anti-proliferative activity ([2]; 0.75-50 μM),effect on cells (cell proliferation / cell death) ([5]; 0.75-50 μM),effect on cell proliferation and apoptosis [6],IC50 ([1]; after 72 hours of culture) [µM],IC50 ([3]; after 72 hours of culture) [µM],IC50 ([5]; after 72 hours of culture) [µM]
C=C1C(=O)O[C@H]2CC(=C)[C@H]3CC[C@@](C)(O)[C@@H]3C[C@H]12 [Inuvisculide],low anti-proliferative activity,> the maximum concentration,> the maximum concentration,cytostatic effect,strong pro-apoptotic effect,low anti-proliferative activity,> the maximum concentration,–,–,–,–,–,–,–
C=C1C(=O)O[C@@H]2C[C@H](C)C(CCC(C)=O)=CC[C@H]12 [Tomentosin],–,–,> the maximum concentration,cytostatic effect,strong pro-apoptotic effect,–,–,cytotoxic effect,low anti-proliferative activity,cytotoxic effect,inhibits cell proliferation and induces apoptosis,–,–,–
"N.N.[Cl][Pt][Cl] [cysplatin, Cisplatin]",–,–,–,reduced cell proliferation and increased cell death,–,–,–,reduced cell proliferation and increased cell death,–,reduced cell proliferation and increased cell death,–,25.7,14.9,12.3
